# Source: patent US6737383B1, “Herbicidal oxadiazolidines” (priority 1999, dated 2004)
# Key:
# bedstraw = test: Test B pre/postemergence bedstraw; format: in vivo, Galium aparine
# Method in brief: (§1)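 Herbicidal effect was estimated by eye on a ten-point control scale after plants spent twelve to sixteen days in a greenhouse following soil or foliar treatment. Foliar sprays targeted plants at one to four leaves; all doses were formulated in a non-phytotoxic solvent with surfactant.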
# blackgrass = test: Test B pre/postemergence blackgrass; format: in vivo, Alopecurus myosuroides
# Method in brief: as §1
# surinam grass = test: Test B pre/postemergence surinam grass; format: in vivo, Brachiaria decumbens
# Method in brief: as §1
# cocklebur = test: Test B pre/postemergence cocklebur; format: in vivo, Xanthium strumarium
# Method in brief: as §1
# corn = test: Test B pre/postemergence corn; format: in vivo, Zea mays
# Method in brief: as §1
# crabgrass = test: Test B pre/postemergence crabgrass; format: in vivo, Digitaria sanguinalis
# Method in brief: as §1
# giant foxtail = test: Test B pre/postemergence giant foxtail; format: in vivo, Setaria faberii
# Method in brief: as §1
# rape = test: Test B pre/postemergence rape; format: in vivo, Brassica napus
# Method in brief: as §1
# soybean = test: Test B pre/postemergence soybean; format: in vivo, Glycine max
# Method in brief: as §1
# sugar beet = test: Test B pre/postemergence sugar beet; format: in vivo, Beta vulgaris
# Method in brief: as §1
# velvetleaf = test: Test B pre/postemergence velvetleaf; format: in vivo, Abutilon theophrasti
# Method in brief: as §1
# wheat = test: Test B pre/postemergence wheat; format: in vivo, Triticum aestivum
# Method in brief: as §1
# purple nutsedge = test: Test B pre/postemergence purple nutsedge; format: in vivo, Cyperus rotundus
# Method in brief: as §1
# rice = test: Test B flood test rice; format: in vivo, Oryza sativa
# Method in brief: (§2)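 Each value is a visual injury score relative to controls, with 10 meaning complete control and 0 no effect. Evaluation took place twelve to sixteen days after the 2-leaf-stage plants were treated and kept in the greenhouse.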
# smallflower flatsedge = test: Test B flood test smallflower flatsedge; format: in vivo, Cyperus difformis
# Method in brief: as §2
# duck salad = test: Test B flood test duck salad; format: in vivo, Heteranthera limosa
# Method in brief: as §2
# bamyardgrass = test: Test B flood test barnyardgrass; format: in vivo, Echinochloa crus-galli
# Method in brief: as §2
# [1] = Postemergence, Rate 62 g/ha, scale 0 to 10, 0 is no effect, 10 is complete control
# [2] = Postemergence, Rate 250 g/ha, scale 0 to 10, 0 no effect, 10 complete control
# [3] = Preemergence, Rate 62 g/ha, scale 0 to 10, 0 is no effect, 10 is complete control
# [4] = Preemergence, Rate 125 g/ha, scale 0 to 10 (0 no effect, 10 complete control)
# [5] = Preemergence, Rate 250 g/ha, scale of 0 to 10 where 0 is no effect and 10 is complete control
# [6] = Preemergence, Rate 500 g/ha, scale 0 (no effect) to 10 (complete control)
# [7] = Rate 125 g/ha, Postemergence, scale 0 to 10, 0 no effect, 10 complete control
# [8] = Rate 500 g/ha, Postemergence, scale 0 to 10, 0 no effect, 10 complete control
# [9] = Rate 125 g/ha, Postemergence section (flood test species), scale 0 to 10, 0 no effect, 10 complete control
# [10] = Rate 500 g/ha, listed under Postemergence (flood test species), scale 0 to 10, 0 no effect, 10 complete control
# [11] = flood test, listed under Postemergence, Rate 250 g/ha, scale 0 to 10, 0 no effect, 10 complete control
smiles,measurement,setting,value
Cc1ccccc1-n1c(=O)on(C(=O)N(c2ccc(F)c(F)c2)C(C)C)c1=O [Compound 48],Bedstraw plant response rating,bedstraw; [1],0
same,Bedstraw plant response rating,bedstraw; [2],0
same,"Plant response rating, Bedstraw",bedstraw; [3],0
same,"Plant response rating, Bedstraw",bedstraw; [4],0
same,"Plant response rating, Bedstraw",bedstraw; [5],0
same,Bedstraw plant response rating,bedstraw; [6],0
same,Bedstraw plant response rating,bedstraw; [7],0
same,Blackgrass plant response rating,blackgrass; [1],0
same,Blackgrass plant response rating,blackgrass; [2],0
same,"Plant response rating, Blackgrass",blackgrass; [3],0
same,"Plant response rating, Blackgrass",blackgrass; [4],0
same,"Plant response rating, Blackgrass",blackgrass; [5],2
same,Blackgrass plant response rating,blackgrass; [6],2
same,Blackgrass plant response rating,blackgrass; [7],0
same,Blackgrass plant response rating,blackgrass; [8],0
same,B. signalgrass plant response rating,surinam grass; [1],0
same,B. signalgrass plant response rating,surinam grass; [2],0
same,"Plant response rating, B. signalgrass",surinam grass; [3],0
same,"Plant response rating, B. signalgrass",surinam grass; [4],0
same,"Plant response rating, B. signalgrass",surinam grass; [5],0
same,B. signalgrass plant response rating,surinam grass; [6],0
same,B. signalgrass plant response rating,surinam grass; [7],0
same,B. signalgrass plant response rating,"surinam grass; Rate 500 g/ha, Postemergence, scale of 0 to 10 where 0 is no effect and 10 is complete control",0
same,Cocklebur plant response rating,cocklebur; [1],0
same,Cocklebur plant response rating,cocklebur; [2],0
same,"Plant response rating, Cocklebur",cocklebur; [3],0
same,"Plant response rating, Cocklebur",cocklebur; [4],0
same,"Plant response rating, Cocklebur",cocklebur; [5],0
same,Cocklebur plant response rating,cocklebur; [6],0
same,Cocklebur plant response rating,cocklebur; [7],0
same,Cocklebur plant response rating,cocklebur; [8],2
same,Corn plant response rating,corn; [1],0
same,Corn plant response rating,corn; [2],0
same,"Plant response rating, Corn",corn; [3],0
same,"Plant response rating, Corn",corn; [4],0
same,"Plant response rating, Corn",corn; [5],0
same,Corn plant response rating,corn; [6],0
same,Corn plant response rating,corn; [7],0
same,Corn plant response rating,corn; [8],0
same,Crabgrass plant response rating,crabgrass; [1],0
same,Crabgrass plant response rating,crabgrass; [2],3
same,"Plant response rating, Crabgrass",crabgrass; [3],1
same,"Plant response rating, Crabgrass",crabgrass; [4],6
same,"Plant response rating, Crabgrass",crabgrass; [5],7
same,Crabgrass plant response rating,crabgrass; [6],7
same,Crabgrass plant response rating,crabgrass; [7],1
same,Crabgrass plant response rating,crabgrass; [8],8
same,Giant foxtail plant response rating,giant foxtail; [1],0
same,Giant foxtail plant response rating,giant foxtail; [2],2
same,"Plant response rating, Giant foxtail",giant foxtail; [3],6
same,"Plant response rating, Giant foxtail",giant foxtail; [4],9
same,"Plant response rating, Giant foxtail",giant foxtail; [5],10
same,Giant foxtail plant response rating,giant foxtail; [6],10
same,Giant foxtail plant response rating,giant foxtail; [7],0
same,Giant foxtail plant response rating,giant foxtail; [8],3
same,Rape plant response rating,rape; [1],0
same,Rape plant response rating,rape; [2],0
same,"Plant response rating, Rape",rape; [3],0
same,"Plant response rating, Rape",rape; [4],0
same,"Plant response rating, Rape",rape; [5],0
same,Rape plant response rating,rape; [6],0
same,Rape plant response rating,rape; [7],0
same,Rape plant response rating,rape; [8],0
same,Soybean plant response rating,soybean; [1],1
same,Soybean plant response rating,soybean; [2],1
same,"Plant response rating, Soybean",soybean; [3],0
same,"Plant response rating, Soybean",soybean; [4],0
same,"Plant response rating, Soybean",soybean; [5],0
same,Soybean plant response rating,soybean; [6],0
same,Soybean plant response rating,soybean; [7],1
same,Soybean plant response rating,soybean; [8],1
same,Sugarbeets plant response rating,sugar beet; [1],0
same,Sugarbeets plant response rating,sugar beet; [2],0
same,"Plant response rating, Sugarbeets",sugar beet; [3],0
same,"Plant response rating, Sugarbeets",sugar beet; [4],0
same,"Plant response rating, Sugarbeets",sugar beet; [5],0
same,Sugarbeets plant response rating,sugar beet; [6],0
same,Sugarbeets plant response rating,sugar beet; [7],0
same,Sugarbeets plant response rating,sugar beet; [8],0
same,Velvetleaf plant response rating,velvetleaf; [1],0
same,Velvetleaf plant response rating,velvetleaf; [2],0
same,"Plant response rating, Velvetleaf",velvetleaf; [3],0
same,"Plant response rating, Velvetleaf",velvetleaf; [4],0
same,"Plant response rating, Velvetleaf",velvetleaf; [5],0
same,Velvetleaf plant response rating,velvetleaf; [6],0
same,Velvetleaf plant response rating,velvetleaf; [7],0
same,Velvetleaf plant response rating,velvetleaf; [8],0
same,Wheat plant response rating,wheat; [1],0
same,Wheat plant response rating,wheat; [2],0
same,"Plant response rating, Wheat",wheat; [3],0
same,"Plant response rating, Wheat",wheat; [4],0
same,"Plant response rating, Wheat",wheat; [5],0
same,Wheat plant response rating,wheat; [6],0
same,Wheat plant response rating,wheat; [7],0
same,Wheat plant response rating,wheat; [8],0
same,Nutsedge plant response rating,purple nutsedge; [1],0
same,Nutsedge plant response rating,purple nutsedge; [2],0
same,"Plant response rating, Nutsedge",purple nutsedge; [3],0
same,"Plant response rating, Nutsedge",purple nutsedge; [4],0
same,"Plant response rating, Nutsedge",purple nutsedge; [5],0
same,Nutsedge plant response rating,purple nutsedge; [6],0
same,Nutsedge plant response rating,purple nutsedge; [7],0
same,Nutsedge plant response rating,purple nutsedge; [8],0
same,Rice plant response rating,rice; [1],0
same,Rice plant response rating,rice; [9],0
same,Rice plant response rating,rice; [10],0
same,Rice plant response rating,rice; [11],0
same,S. Flatsedge plant response rating,smallflower flatsedge; [1],0
same,S. Flatsedge plant response rating,smallflower flatsedge; [9],0
same,S. Flatsedge plant response rating,smallflower flatsedge; [10],0
same,S. Flatsedge plant response rating,smallflower flatsedge; [11],0
same,Ducksalad plant response rating,duck salad; [1],0
same,Ducksalad plant response rating,duck salad; [10],0
same,Ducksalad plant response rating,duck salad; [11],0
same,Barnyardgrass plant response rating,bamyardgrass; [1],0
same,Barnyardgrass plant response rating,bamyardgrass; [9],0
same,Barnyardgrass plant response rating,bamyardgrass; [10],0
same,Barnyardgrass plant response rating,bamyardgrass; [11],0
